Results: paper PMC12573178, “Substrate-Guided Development of HDAC11-Selective Inhibitors Featuring α‑Amino Amide Zinc-Binding Groups” (ACS Omega, 2025)

Target: T1, SIRT2 (Homo sapiens, UniProt Q8IXJ6)
T1 sequence (Q8IXJ6 1-389): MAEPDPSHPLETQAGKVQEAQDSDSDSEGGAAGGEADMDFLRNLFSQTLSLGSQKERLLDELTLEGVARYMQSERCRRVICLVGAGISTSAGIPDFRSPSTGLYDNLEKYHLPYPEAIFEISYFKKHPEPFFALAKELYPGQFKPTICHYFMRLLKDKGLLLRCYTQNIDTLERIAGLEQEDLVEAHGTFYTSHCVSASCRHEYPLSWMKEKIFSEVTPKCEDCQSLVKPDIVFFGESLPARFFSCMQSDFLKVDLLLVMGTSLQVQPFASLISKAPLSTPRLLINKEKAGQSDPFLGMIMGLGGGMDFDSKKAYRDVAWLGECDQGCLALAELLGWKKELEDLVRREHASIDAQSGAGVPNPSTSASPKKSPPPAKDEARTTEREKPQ
Assay: SIRT2 inhibition assays (continuous / discontinuous demyristoylation)
Type: biochemical
Experimental: Inhibition of the enzymatic activity of HDACs was performed continuously for HDAC8, HDAC11, and SIRT2 and discontinuously for SIRT2, 3, and 6 using adequate substrates as described previously. , Experimental details are given in the Supporting Information.
A. HDAC and SIRT deacylase activity assays
Continuous in vitro HDAC inhibition assays
The inhibitors were tested using 384-well plates (GreinerONe). After 5 min of incubation of the inhibitors together with the respective enzymes (HDAC8 = 2 nM, HDAC11 = 20 nM, SIRT2 = 1 nM), the reactions were always started by the addition of substrate for the Zn2+-dependent HDAC and by the addition of NAD+ for SIRT2. […]
The fluorescence increase was followed for 1 h with two reads per min using a PerkinElmer Envision 2104 multilabel plate reader. […] The measured values were normalized accordingly. […] The data were fitted using the GraphPad Prism8 software and kinetic values calculated through non-linear regression analysis. […]
Reactions were stopped after 20 min by adding a constant volume of reaction mixture to stop solution (5 % acetonitrile (ACN) (v/v) and 1 % trifluoroacetic acid (TFA) (v/v) in dd. H 2O). The samples were analysed using HPLC-UV/VIS at λ Abs = 220 nm, λ Ex = 320 nm und λ Em = 420 nm. […]
100 nM, SIRT3: 200 nM, SIRT6: 500 nM). […] The samples were analysed using HPLC-UV/VIS at λ Abs = 360 nm. […]

SMILES: CCCCCCCCCCCCSC[C@@H](N)C(=O)NCCCC[C@@H]1NC(=O)[C@H](CCC(N)=O)NC1=O [Compound 31]
- IC50: > 20 µM
- inhibition at 50 µM (50 μM 31): 41.5%
